Laboratory results: patent US10654925B2, “Anti-marinobufagenin antibodies and uses thereof” (priority 2018, dated 2020)
Marks after values point to notes of the source that are not given here.

Key:
[1] = tested on: pregnant Sprague-Dawley rats; experiment: DOCA/saline rat model of pre-eclampsia; format: in vivo; settings: antibodies 2.2 mg/kg/d i.p. days 16-18 in PDS rats
Method: Female Sprague-Dawley rats (200-250 g, Charles River Laboratories) were acclimatized for 1 week, and mated with male Sprague-Dawley rats (275-300 g). Pregnancy was confirmed by the presence of vaginal plugs or by examination of vaginal smears. Each rat was housed separately.
Five groups of rats were studied (n=10 per group): Group 1 (NP): normal pregnant rats; Group 2 (PDS): pregnant rats injected i.p. initially with 12.5 mg of DOCA in a depot form, followed by a weekly i.p. injection of 6.5 mg of DOCA, and whose drinking water is replaced with 0.9% saline; Group 3 (NPM): Normal pregnant rats given daily injections of MBG (7.65 μg per kg body weight per day) once pregnancy was established on day four of the experiment; Group 4 (PDS-3E9): rats administered DOCA and saline as for Group 2, and also given the murine anti-MBG antibody 3E9 (2.2 mg per kg body weight per day) on days 16, 17, and 18 of pregnancy; and Group 5 (PDS-H3L2): rats administered DOCA and saline as for Group 2, and also given the humanized anti-MBG antibody H3L2 (2.2 mg per kg body weight per day) on days 16, 17, and 18 of pregnancy.
Systolic blood pressure (BP) was measured by tail cuff at days 17-19. At least 3 readings are taken after BP has stabilized, and the mean of these values was calculated. The reported BP values are the mean of the daily measurements. At 18-20 days of pregnancy, 24-hour urine was collected in the absence of food to avoid contamination of the measurement of the protein amount in urine by any fallen food particles. Each rat was housed separately in a metabolic cage during this portion of the study. The 24-hour protein excretion was measured and was normalized to creatinine. The rats were sacrificed after the last measurement on days 18-20, and blood samples were taken. The number of fetal pups was counted and examined. The mean number of pups and any developmental or histological abnormalities in the pups were assessed. Statistical analysis was performed using analysis of variance and Tukey's post hoc test. A p value ≤0.05 was considered statistically significant.

[2] = tested on: Na^+K^+-ATPase (NKA); experiment: Na^+K^+-ATPase activity (Malachite Green Phosphate Assay); format: biochemical, rat; settings: NKA from rat heart (SLP fraction); Pi read as OD 630 nm; FIG. 4
Method: Na^+K^+-ATPase (NKA) was purified from rat heart. The NKA was collected as the sarcolemmal/particulate (SLP) fraction and frozen.
Na^+K^+-ATPase activity was measured as follows: aliquots of SLP were mixed with Reaction Buffer (200 mM Tris-HCl, pH 7.5, 200 mM NaCL, 30 mM MgCl2, 60 mM KCl, 10 mM EGTA, 100 μg/mL PMSF, 2 μg/mL pepstatin A, and 2 μg/mL aprotinin). Reactions were performed with or without MBG and with or without anti-MBG antibodies (1-100 μg/mL). Ouabain was used as positive control for NKA inhibition. Tubes were prewarmed, and ATP was added. Reactions were stopped and were placed on ice.
Phosphate was assayed using the Malachite Green Phosphate Assay. Phosphate standard or sample was added to each well of a 96-well plate, followed by Reagent A. Reagent B was added, with mixing and incubation. OD was then read at 630 nm in a microplate spectrophotometer.

[3] = tested on: PKC-δ in the nucleus of primary rat cardiac fibroblasts; experiment: Inhibition of MBG-induced PKC-δ nuclear translocation (Western blot); settings: MBG at 2 nM
Method: MBG was incubated with an anti-MBG antibody prior to addition to cultured primary rat cardiac fibroblasts. Nuclei were isolated 30 min later and analyzed for amount of PKC-6.

[4] = tested on: human CTB cells; format: cell-based
[5] = tested on: pregnant Sprague-Dawley rats; experiment: DOCA/saline rat model of pre-eclampsia; format: in vivo; settings: tail cuff; baseline; antibodies 2.2 mg/kg/d i.p. days 16-18 in PDS (DOCA/saline) rats; MBG 7.65 μg/kg/d in normal pregnant rats (NPM); N = 10

C[C@]12CC[C@H](O)C[C@@]1(O)CC[C@@H]1[C@@H]2CC[C@]2(C)[C@@H](c3ccc(=O)oc3)C[C@H]3O[C@]132 [MBG, marinobufagenin]
% Malformed Pups ([1]; MBG 7.65 μg/kg/d in NPM rats): 18 * %
No. Pups ([1]; MBG 7.65 μg/kg/d in NPM rats): 9.5 ± 1.3
Urine Protein ([1]; normalized to creatinine, 18-20 days of pregnancy, MBG 7.65 μg/kg/d in NPM rats): 6.4 ± 1.8 mg/24 h
Blood Pressure-Final ([1]; tail cuff, 17-19 d of gestation, MBG 7.65 μg/kg/d in normal pregnant rats (NPM), N = 10): 137 ± 5 mm Hg
inhibition of NKA activity [2]: inhibit the NKA activity significantly
amount of PKC-δ in the nucleus, MBG alone compared to Control (vehicle) [3]: induced an increase
PCNA expression, MBG compared to vehicle (DMSO) [4]: significantly downregulated
phosphorylation of p38 MAPK, MBG compared to vehicle (DMSO) [4]: increased
secretion of P1GF, MBG compared to vehicle (DMSO) [4]: significantly reduced
secretion of VEGF, MBG compared to vehicle (DMSO) [4]: significantly reduced
secretion of sEng, MBG compared to vehicle (DMSO) [4]: significantly increased
secretion of sFlt1, MBG compared to vehicle (DMSO) [4]: significantly increased
Blood Pressure-Initial [5]: 104 ± 4 mm Hg
